Laboratory results as given in article PMC6522510 (Nature Communications, 2019).
Where two headings read alike, the source gives them in different places.

Columns and labels:
Experiment in all cases: Secondary dose-response HTS, Cell Titer Glo; call rule not given here
Type in all cases: cell-based, human
CHRF288-11 = settings: for EC50: Homo sapiens
CMK = settings: CMK
CMS = tested on: CMS
M07e = tested on: M07e
ML2 = settings: ML-2
U937 = tested on: U937
MV4-11 = settings: MV4-11; for EC50: Homo sapiens
MOLM-13 = settings: Homo sapiens; secondary high-throughput screen; MOLM-13; read-out: average effective concentration, MOLM-13
[1] = HTS, secondary high-throughput screen, CHRF288-11, read-out: average effective concentration, CHRF288-11
[2] = Homo sapiens, HTS, secondary high-throughput screen, CMS, read-out: average effective concentration, CMS
[3] = Homo sapiens, M-07e, secondary high-throughput screen, M07e, read-out: average effective concentration, M07e
[4] = Homo sapiens, secondary high-throughput screen, read-out: average effective concentration, ML-2
[5] = Homo sapiens, U-937, secondary high-throughput screen, U937, read-out: average effective concentration, U937
[6] = secondary high-throughput screen
[7] = secondary high-throughput screen, CHRF288-11
[8] = secondary high-throughput screen, CMS
[9] = secondary high-throughput screen, […]
[10] = secondary high-throughput screen, U937
[11] = secondary high-throughput screen, M07e
[12] = secondary high-throughput screen, read-out: average effective concentration, ML-2

Compound | average effective concentration, MV4-11 (MV4-11; [6]) | average effective concentration, CHRF288-11 (CHRF288-11; [7]) | average effective concentration, CMK (CMK; [6]) | average effective concentration, CMS (CMS; [8]) | average effective concentration, ML-2 (ML2; [6]) | average effective concentration, U937 (U937; [10]) | average effective concentration, M07e (M07e; [11]) | also measured
O=C(CCCCCN1C(=O)c2cccc3cccc(c23)C1=O)NO | – | – | – | – | – | – | – | EC50 (CHRF288-11; [1]): 1700 nM; EC50 (CMK; Homo sapiens, secondary high-throughput screen, read-out: average effective concentration, CMK): 200 nM; EC50 (CMS; [2]): 600 nM; EC50 (M07e; [3]): 330 nM; EC50 (ML2; [4]): 4100 nM; EC50 (U937; [5]): 680 nM
C=C1C(=O)O[C@@H](CCC)[C@@H]1C(=O)O (racemic) [BUTYROLACTONE 3] | Inactive | Inactive | Inactive | Inactive | Inactive | Inactive | – | average effective concentration, M07e (M07e; [9]): Inactive
O=c1[nH]c2ccccc2c2ccccc12 [6(5H)-PHENANTHRIDINONE] | Inactive | – | Inactive | Inactive | – | Inactive | Inactive | –
Cc1noc(-c2ccc(-c3ccc(CC(=O)O)cc3)cc2)c1NC(=O)O[C@H](C)c1ccccc1Cl [AM-966] | Inactive | Inactive | Inactive | Inactive | Inactive | Inactive | Inactive | –
CC(C)(O)[C@@H]1CC[C@](C)([C@H]2[C@@H](O)C[C@@]3(C)[C@@H]4C[C@H](O[C@@H]5O[C@H](CO)[C@@H](O)[C@H](O)[C@H]5O)[C@H]5C(C)(C)[C@@H](O[C@@H]6OC[C@@H](O)[C@H](O)[C@H]6O)CC[C@@]56C[C@@]46CC[C@]23C)O1 [ASTRAGALOSIDE IV] | Inactive | – | Inactive | Inactive | – | Inactive | Inactive | –
C[C@H]1[C@H](OC(=O)CCC(=O)O)O[C@@H]2O[C@@]3(C)CC[C@H]4[C@H](C)CC[C@@H]1[C@@]24OO3 [Artesunate, reference compound] | – | – | – | – | – | – | – | EC50 (MOLM-13): 1300 nM; EC50 (CHRF288-11; [1]): 8600 nM; EC50 (CMS; [2]): 5900 nM; EC50 (M07e; [3]): 1200 nM; EC50 (ML2; [4]): 4600 nM; EC50 (U937; [5]): 1000 nM
C/C(=C\C(=O)Nc1ccccc1C(=O)O)c1ccc2ccccc2c1 [BIBR-1532] | Inactive | – | Inactive | Inactive | – | Inactive | Inactive | –
CC(C)Oc1ccc(-c2cnc3c(-c4ccnc5ccccc45)cnn3c2)cc1 [DMH-1] | Inactive | Inactive | Inactive | Inactive | Inactive | Inactive | Inactive | –
O=C1NCCc2c(OCCCCN3CCCCC3)cccc21 [DPQ] | Inactive | Inactive | Inactive | Inactive | Inactive | Inactive | Inactive | –
COC(=O)[C@H](CC(C)C)NC(=O)c1ccc(NC[C@@H](N)CS)cc1-c1cccc2ccccc12 [GGTI 298] | – | Inactive | Inactive | Inactive | Inactive | – | Inactive | –
COC(=O)[C@H](CC(C)C)NC(=O)c1ccc(NCc2cnc[nH]2)cc1-c1cccc2ccccc12 [GGTI-2147] | Inactive | Inactive | Inactive | Inactive | Inactive | Inactive | Inactive | –
O=C(CCCCCCSc1ccc2ccccc2c1)NO [HNHA] | Inactive | – | Inactive | Inactive | – | Inactive | Inactive | EC50 (ML2; [12]): 8500 nM
O=C(c1ccc(Cl)cc1Cl)n1nnc2ccccc21 [ITSA1] | Inactive | – | Inactive | Inactive | – | Inactive | Inactive | –
CCc1c(O)cc(O)c(C(=O)c2ccc(OCCN3CCOCC3)c(OC)c2)c1CC(=O)N(CCOC)CCOC.Cl [KW-2478] | – | – | – | Inactive | – | Inactive | Inactive | –
Nc1ncnc2c1ncn2[C@@H]1C=C(CO)[C@@H](O)[C@H]1O [NEPLANOCIN A] | Inactive | – | – | Inactive | – | – | – | average effective concentration, M07e (M07e; [9]): Inactive
COc1ccc(-c2ccc3ncc4c(c3c2)n(-c2ccc(N3CCNCC3)c(C(F)(F)F)c2)c(=O)n4C)cn1 [NVP-BGT226, reference compound] | – | – | – | – | – | – | – | EC50 (MV4-11; secondary HTS, 72 h, average of triplicate, read-out: EC50 MV4-11): 50 nM; EC50 (MV4-11; secondary high-throughput screen, read-out: average effective concentration, MV4-11): 50 nM; EC50 (CHRF288-11; [1]): 55 nM; EC50 (CHRF288-11; secondary HTS, 72 h, average of triplicate, read-out: EC50 CHRF288-11): 50 nM; EC50 (CMK; Homo sapiens, 72 h, read-out: EC50 CMK): 60 nM; EC50 (CMK; Homo sapiens, read-out: average effective concentration, CMK): 63 nM; EC50 (CMS; Homo sapiens, HTS, 72 h, read-out: EC50 CMS): 10 nM; EC50 (CMS; Homo sapiens, HTS, read-out: average effective concentration, CMS): 14 nM; EC50 (M07e; Homo sapiens, M-07e, secondary HTS, 72 h, average of triplicate, read-out: EC50 M07e): 250 nM; EC50 (M07e; [3]): 250 nM; EC50 (ML2; Homo sapiens, secondary HTS, 72 h, average of triplicate, read-out: EC50 ML2): 230 nM; EC50 (ML2; [4]): 230 nM; EC50 (U937; Homo sapiens, U-937, secondary HTS, 72 h, average of triplicate, read-out: EC50 U937): 80 nM; EC50 (U937; [5]): 80 nM
Cc1c(-c2cnccn2)ssc1=S [OLTIPRAZ] | – | – | – | – | – | – | – | EC50 (MOLM-13): > 10000 nM; EC50 (CHRF288-11; [1]): > 10000 nM; EC50 (CMS; [2]): 10000 nM; EC50 (M07e; [3]): > 10000 nM; EC50 (ML2; [4]): 3100 nM; EC50 (U937; [5]): 5800 nM
NC(=O)c1cccc2ncc(-c3ccc(Cl)cc3)nc12 [PARP INHIBITOR XII] | Inactive | Inactive | Inactive | Inactive | Inactive | Inactive | Inactive | –
O=C(CCN1CCN(C(=O)OCc2cc(Cl)cc(Cl)c2)CC1)c1ccc2[nH]c(=O)oc2c1 [PF-8380] | Inactive | Inactive | Inactive | Inactive | Inactive | Inactive | Inactive | –
CN(C)CC(=O)Nc1ccc2[nH]c(=O)c3ccccc3c2c1 [PJ34] | Inactive | Inactive | Inactive | Inactive | Inactive | Inactive | Inactive | –
O=C(O)C(Cc1c[nH]c2ccccc12)N1C(=O)c2ccccc2C1=O (stereo not drawn) [RG108] | Inactive | Inactive | Inactive | Inactive | Inactive | Inactive | Inactive | –
C[S+]([O-])CCCCN=C=S (stereo not drawn) [SULFORAPHANE] | – | – | – | – | – | – | – | EC50 (CHRF288-11; [1]): > 10000 nM; EC50 (CMS; [2]): > 10000 nM; EC50 (M07e; [3]): > 10000 nM; EC50 (ML2; [4]): > 10000 nM; EC50 (U937; [5]): > 10000 nM
Cc1cc(C(C)Nc2ccccc2)c2nc(N3CCOCC3)cc(=O)n2c1 (stereo not drawn) [TGX-221] | – | Inactive | – | Inactive | Inactive | Inactive | Inactive | –
EVODIAMINE | – | – | – | – | – | – | – | EC50 (CMK; secondary high-throughput screen, read-out: average effective concentration, CMK): 300 nM; EC50 (CMS; secondary high-throughput screen, CMS, read-out: average effective concentration, CMS): 1500 nM; EC50 (M07e; secondary high-throughput screen, […], read-out: average effective concentration, M07e): 4400 nM; EC50 (ML2; [12]): 450 nM; EC50 (U937; secondary high-throughput screen, U937, read-out: average effective concentration, U937): 2100 nM
